Experimental data: PubChem BioAssay AID588672 (Sanford-Burnham Center for Chemical Genomics, 2011)
The source made the active and inactive calls.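 Rule for the calls: active = IC50 at or below 20 µM; inactive = the rest.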

These molecules were tested against Glucose-6-phosphate 1-dehydrogenase (Homo sapiens) (UniProt P11413) (assay: inhibition of recombinant human G6PD – biochemical, fluorescence, dose response, set 2, selectivity assay for P. falciparum G6PD inhibitor project, SAR follow-up (AID 588672)). Conditions: NADPH-diaphorase-resazurin fluorescence.
Chain of Glucose-6-phosphate 1-dehydrogenase (Homo sapiens) (P11413 whole entry, looked up): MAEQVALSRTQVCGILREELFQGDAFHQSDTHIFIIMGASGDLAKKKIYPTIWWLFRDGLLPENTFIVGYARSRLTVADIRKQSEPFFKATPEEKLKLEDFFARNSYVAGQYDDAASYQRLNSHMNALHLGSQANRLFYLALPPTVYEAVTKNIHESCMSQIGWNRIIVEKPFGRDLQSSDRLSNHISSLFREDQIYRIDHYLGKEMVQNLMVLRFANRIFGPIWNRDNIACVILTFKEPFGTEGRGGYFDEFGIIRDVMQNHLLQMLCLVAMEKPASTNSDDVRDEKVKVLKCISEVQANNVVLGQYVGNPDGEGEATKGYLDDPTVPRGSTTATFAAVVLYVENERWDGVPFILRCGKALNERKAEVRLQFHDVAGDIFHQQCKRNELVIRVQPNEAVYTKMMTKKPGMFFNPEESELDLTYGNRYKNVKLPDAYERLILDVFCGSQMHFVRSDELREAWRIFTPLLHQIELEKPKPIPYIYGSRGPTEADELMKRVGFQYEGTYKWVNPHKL

Row | IC50 | SMILES
1 | > 80 µM (inactive) | CCN1CCC[C@@H]1CNC(=O)c1ccc2c(c1)NC(=O)/C(=C/c1ccccc1F)S2
2 | > 80 µM (inactive) | CCN1CCCC1CNC(=O)c1ccc2c(c1)NC(=O)/C(=C/c1ccccc1)S2 (stereo not given)
3 | > 80 µM (inactive) | O=C1Nc2cc(C(=O)NCCN3CCCC3)ccc2S/C1=C\c1ccccc1F
4 | > 80 µM (inactive) | O=C1COc2ccc(C(=O)NCCN3CCCC3)cc2N1
5 | > 80 µM (inactive) | CCN1CCCC1CNC(=O)c1ccc2c(c1)NC(=O)/C(=C/c1ccccc1OC)S2 (stereo not given)
6 | > 80 µM (inactive) | O=C1Nc2cc(C(=O)NCCN3CCOCC3)ccc2S/C1=C\c1ccccc1F
7 | > 80 µM (inactive) | O=C1Nc2cc(C(=O)NCc3ccccc3)ccc2S/C1=C\c1ccccc1F
8 | > 80 µM (inactive) | CCN(CC)CCNC(=O)c1ccc2c(c1)NC(=O)c1ccccc1S2
9 | > 80 µM (inactive) | CCN1CCC[C@H]1CNC(=O)c1ccc2c(c1)NC(=O)/C(=C/c1ccccc1F)S2
10 | > 80 µM (inactive) | CCN(CC)CCNC(=O)c1ccc2c(c1)NC(=O)CO2
11 | > 80 µM (inactive) | O=C(NCCN1CCOCC1)c1ccc2c(c1)NC(=O)c1ccccc1O2
12 | > 80 µM (inactive) | CN(C)CCNC(=O)c1ccc2c(c1)NC(=O)CO2

The next lines start with the molecule.

Row | SMILES | IC50
13 | CN1CCN(C(=O)c2ccc3c(c2)NC(=O)/C(=C/c2ccccc2Cl)S3)CC1 | > 80 µM (inactive)
14 | CCN(CC)CCNC(=O)c1ccc2c(c1)NC(=O)c1ccccc1O2 | > 80 µM (inactive)
15 | CCN1CCCC1CNC(=O)c1ccc2c(c1)NC(=O)c1ccccc1S2 (stereo not given) | > 80 µM (inactive)
16 | O=C1COc2ccc(C(=O)NCCN3CCOCC3)cc2N1 | > 80 µM (inactive)
17 | CN1CCCC1CCNC(=O)c1ccc2c(c1)NC(=O)/C(=C/c1ccccc1F)S2 (stereo not given) | > 80 µM (inactive)
18 | O=C1Nc2cc(C(=O)NCCN3CCCCC3)ccc2S/C1=C\c1ccccc1F | > 80 µM (inactive)
19 | O=C(NCCN1CCCC1)c1ccc2c(c1)NC(=O)c1ccccc1S2 | > 80 µM (inactive)
20 | CCN1CCCC1CNC(=O)c1ccc2c(c1)NC(=O)CS2 (stereo not given) | > 80 µM (inactive)
21 | O=C(NCCN1CCCC1)c1ccc2c(c1)NC(=O)c1ccccc1O2 | > 80 µM (inactive)
22 | CCN1CCCC1CNC(=O)c1ccc2c(c1)NC(=O)c1ccccc1O2 (stereo not given) | > 80 µM (inactive)
23 | O=C(NCCN1CCCCC1)c1ccc2c(c1)NC(=O)c1ccccc1O2 | > 80 µM (inactive)
24 | O=C1COc2ccc(C(=O)NCCN3CCCCC3)cc2N1 | > 80 µM (inactive)
25 | CN(C)CCNC(=O)c1ccc2c(c1)NC(=O)/C(=C/c1ccccc1F)S2 | > 80 µM (inactive)
26 | CCN1CCCC1CNC(=O)c1ccc2c(c1)NC(=O)/C(=C/c1cccc3ccccc13)S2 (stereo not given) | > 80 µM (inactive)
27 | CN(C)CCNC(=O)c1ccc2c(c1)NC(=O)c1ccccc1O2 | > 80 µM (inactive)
28 | CCN1CCCC1CNC(=O)c1ccc2c(c1)NC(=O)/C(=C/c1ccccc1F)S2 (stereo not given) | > 80 µM (inactive)
29 | CCN1CCCC1CNC(=O)c1ccc2c(c1)NC(=O)/C(=C/c1ccccc1C)S2 (stereo not given) | > 80 µM (inactive)
30 | CCN1CCCC1CNC(=O)c1ccc2c(c1)NC(=O)CO2 (stereo not given) | > 80 µM (inactive)
